Data reported in patent US9902696B2, “1,4-substituted piperidine derivatives” (Cephalon, Inc., priority 2015, dated 2018).
Structures can show the parent of a compound that is named as a salt.

Molecular target: T1, recombinant human baculovirus-expressed GST-tagged FASN (Homo sapiens, UniProt P49327)
T1 construct: GST
Assay: FASN enzyme activity assay, fluorescence-based detection of CoA with CPM
Assay type: biochemical
Settings: 5 nM FASN, 150 μM NADPH, 10 μM acetyl-CoA, 25 μM malonyl-CoA, 90 minutes incubation; read-out: IC50 data for Additional Compounds of Formulae I-V(a): Activity
Method in brief: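 Human GST-tagged FASN, baculovirus-expressed (5 nM), in 50 mM HEPES pH 7.5 with 150 μM NADPH, 10 μM acetyl-CoA, 25 μM malonyl-CoA, 0.5% DMSO; malonyl-CoA-started, 90 min. Released CoA detected with CPM (50 μM dilution), 30 min, fluorescence ex 390/em 530. IC50 from variable-slope sigmoidal fit of % inhibition versus log concentration.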

T1 sequence (P49327 whole entry): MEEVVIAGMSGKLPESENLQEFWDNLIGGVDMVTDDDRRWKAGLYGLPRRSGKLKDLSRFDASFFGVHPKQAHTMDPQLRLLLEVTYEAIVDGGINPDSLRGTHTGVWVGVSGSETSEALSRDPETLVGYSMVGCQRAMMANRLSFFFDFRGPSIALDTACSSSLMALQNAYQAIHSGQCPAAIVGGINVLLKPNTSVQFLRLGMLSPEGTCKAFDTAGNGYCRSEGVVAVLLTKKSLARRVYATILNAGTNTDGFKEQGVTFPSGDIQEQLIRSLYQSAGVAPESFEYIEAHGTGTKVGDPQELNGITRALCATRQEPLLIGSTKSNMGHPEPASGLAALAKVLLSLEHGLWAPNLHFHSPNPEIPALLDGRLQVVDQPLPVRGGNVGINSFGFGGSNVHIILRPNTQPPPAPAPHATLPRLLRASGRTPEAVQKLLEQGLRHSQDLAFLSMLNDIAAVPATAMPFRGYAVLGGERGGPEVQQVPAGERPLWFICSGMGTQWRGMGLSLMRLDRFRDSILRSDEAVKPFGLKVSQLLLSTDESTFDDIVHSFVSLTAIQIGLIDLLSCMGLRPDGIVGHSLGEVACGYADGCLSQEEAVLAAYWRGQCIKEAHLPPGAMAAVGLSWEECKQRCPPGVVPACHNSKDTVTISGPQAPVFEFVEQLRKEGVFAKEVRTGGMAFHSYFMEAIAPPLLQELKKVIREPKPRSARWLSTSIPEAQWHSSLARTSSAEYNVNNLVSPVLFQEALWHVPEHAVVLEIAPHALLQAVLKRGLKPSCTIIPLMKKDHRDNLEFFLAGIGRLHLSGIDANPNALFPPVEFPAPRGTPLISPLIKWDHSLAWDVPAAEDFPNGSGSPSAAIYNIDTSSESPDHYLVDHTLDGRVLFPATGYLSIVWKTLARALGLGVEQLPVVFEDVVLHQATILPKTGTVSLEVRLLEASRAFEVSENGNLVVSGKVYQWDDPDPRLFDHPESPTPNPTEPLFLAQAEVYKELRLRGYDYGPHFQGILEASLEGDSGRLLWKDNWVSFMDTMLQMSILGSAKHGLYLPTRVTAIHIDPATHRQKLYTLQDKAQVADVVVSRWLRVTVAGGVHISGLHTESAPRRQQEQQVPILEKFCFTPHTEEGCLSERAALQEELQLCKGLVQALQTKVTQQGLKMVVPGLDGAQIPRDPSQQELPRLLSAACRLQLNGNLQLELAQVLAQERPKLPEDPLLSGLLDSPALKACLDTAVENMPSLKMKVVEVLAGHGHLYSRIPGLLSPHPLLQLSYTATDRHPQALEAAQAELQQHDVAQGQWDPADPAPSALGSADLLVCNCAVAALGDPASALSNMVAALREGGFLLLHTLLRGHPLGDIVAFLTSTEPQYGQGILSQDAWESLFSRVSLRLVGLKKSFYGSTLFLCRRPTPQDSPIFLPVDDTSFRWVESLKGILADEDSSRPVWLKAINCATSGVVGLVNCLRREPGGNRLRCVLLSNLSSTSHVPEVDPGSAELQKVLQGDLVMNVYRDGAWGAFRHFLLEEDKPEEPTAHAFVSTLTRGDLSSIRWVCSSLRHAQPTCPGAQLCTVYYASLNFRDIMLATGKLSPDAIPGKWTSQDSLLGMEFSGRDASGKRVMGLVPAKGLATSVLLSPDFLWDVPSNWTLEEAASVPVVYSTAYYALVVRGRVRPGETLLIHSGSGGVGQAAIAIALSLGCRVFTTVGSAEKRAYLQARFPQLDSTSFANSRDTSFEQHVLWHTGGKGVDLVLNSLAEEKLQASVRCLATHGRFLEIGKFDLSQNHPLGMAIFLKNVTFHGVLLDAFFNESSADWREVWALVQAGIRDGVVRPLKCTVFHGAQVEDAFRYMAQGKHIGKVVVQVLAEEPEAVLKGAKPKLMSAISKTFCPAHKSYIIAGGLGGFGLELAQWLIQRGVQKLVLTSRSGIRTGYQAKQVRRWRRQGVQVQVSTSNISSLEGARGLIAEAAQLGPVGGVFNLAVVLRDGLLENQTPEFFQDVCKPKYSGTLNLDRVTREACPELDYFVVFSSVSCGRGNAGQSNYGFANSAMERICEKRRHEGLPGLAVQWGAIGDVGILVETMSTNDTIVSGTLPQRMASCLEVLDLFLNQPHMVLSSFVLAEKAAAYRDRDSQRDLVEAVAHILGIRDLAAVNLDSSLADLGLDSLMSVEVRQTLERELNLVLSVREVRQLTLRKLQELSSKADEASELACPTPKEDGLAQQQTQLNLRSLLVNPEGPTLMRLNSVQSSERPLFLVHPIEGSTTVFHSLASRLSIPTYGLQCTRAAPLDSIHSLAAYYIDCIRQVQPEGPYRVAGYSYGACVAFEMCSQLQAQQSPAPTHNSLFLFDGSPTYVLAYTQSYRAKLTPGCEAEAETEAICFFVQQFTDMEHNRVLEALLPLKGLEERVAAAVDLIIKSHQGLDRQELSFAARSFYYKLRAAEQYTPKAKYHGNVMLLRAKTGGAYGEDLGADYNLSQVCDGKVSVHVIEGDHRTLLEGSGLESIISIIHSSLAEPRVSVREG

`Cc1c(-c2ccc(OC3CCN(C(=O)NC(C)C)CC3)cc2)ccc2nccn12` [Example 603, N-Isopropyl-4-[4-(5-methylimidazo[1,2-a]pyridin-6-yl)phenoxy]piperidine-1-carboxamide] and `Cc1c(-c2ccc(OC3CCN(C(=O)N(C)C)CC3)cc2)ccc2nccn12` [Example 599, N,N-Dimethyl-4-[4-(5-methylimidazo[1,2-a]pyridin-6-yl)phenoxy]piperidine-1-carboxamide] fall in the same range of IC50: 1000 to 10000 nM for the first, 1000 to 10000 nM for the second.

`CCNC(=O)N1CCC(Oc2ccc(-c3ccc4ccnn4c3C)cc2)CC1` [Example 536, N-Ethyl-4-[4-(7-methylpyrazolo[1,5-a]pyridin-6-yl)phenoxy]piperidine-1-carboxamide] and `Cc1c(-c2ccc(OC3CCN(C(=O)CCN)CC3)cc2)ccc2cccnc12` [Example 623, 3-Amino-1-[4-[4-(8-methyl-7-quinolyl)phenoxy]-1-piperidyl]propan-1-one, 2HCl] fall in the same range of IC50: 1000 to 10000 nM for the first, 1000 to 10000 nM for the second.

Same assay, conditions: 5 nM FASN, 150 μM NADPH, 10 μM acetyl-CoA, 25 μM malonyl-CoA, 90 minutes incubation; read-out: IC50 data for Compounds of Formulae I-V/V(a): Activity

`CCC(=O)N1CCC(Oc2ccc(-c3cnc4ccccc4c3)cc2C)CC1` [Example 212, 1-[4-(2-Methyl-4-quinolin-3-yl-phenoxy)-piperidin-1-yl]-propan-1-one] and `CCC(=O)N1CCC(Oc2ccc(-c3ccc4cccnc4c3)cc2OC)CC1` [Example 199, 1-[4-(2-Methoxy-4-quinolin-7-yl-phenoxy)-piperidin-1-yl]-propan-1-one] fall in the same range of IC50: 1000 to 10000 nM for the first, 1000 to 10000 nM for the second.

First: CCOc1c(-c2ccc(OC3CCN(C(=O)CC)CC3)cc2)ccc2cccnc12 [Example 167, 1-{4-[4-(8-Ethoxyquinolin-7-yl)-phenoxy]-piperidin-1-yl}-propan-1-one, HCl]
Second: CCC(=O)N1CCC(Oc2ccc(-c3ccc4c(C)nccc4c3C)cc2)CC1 [Example 472, 1-[4-[4-(1,5-Dimethyl-6-isoquinolyl)phenoxy]-1-piperidyl]propan-1-one HCl]
The IC50 of the first is lower: 1 to 99 nM for the first, 100 to 999 nM for the second.

`O=C([C@H]1CCCO1)N1CCC(Oc2ccc(-c3ccc4cc(Cl)cnc4c3)cc2)CC1` [Example 265, {4-[4-(3-Chloroquinolin-7-yl)-phenoxy]-piperidin-1-yl}-(R)-tetrahydro-furan-2-yl-methanone, TFA salt] and `O=C([C@H]1CCCO1)N1CCC(Oc2ccc(-c3cnc4ccccc4c3)cc2)CC1` [Example 103, [4-(4-Quinolin-3-yl-phenoxy)-piperidin-1-yl]-(R)-tetrahydrofuran-2-yl-methanone, HCl] fall in the same range of IC50: 1 to 99 nM for the first, 1 to 99 nM for the second.

`CC(C)C(=O)N1CCC(Oc2ccc(-c3cnc4ccccc4c3)cn2)CC1` [Example 133, 2-Methyl-1-[4-(5-quinolin-3-yl-pyridin-2-yloxy)-piperidin-1-yl]-propan-1-one, HCl] and `CC(C)C(=O)N1CCC(Oc2cc(F)c(-c3cnc4ccccc4c3)cc2F)CC1` [Example 216, 1-[4-(2,5-Difluoro-4-quinolin-3-yl-phenoxy)-piperidin-1-yl]-2-methyl-propan-1-one] fall in the same range of IC50: 1000 to 10000 nM for the first, 1000 to 10000 nM for the second.

First: Cc1c(-c2ccc(OC3CCN(C(=O)NO)CC3)cc2)cnc2ccccc12 [Example 87, 4-[4-(4-Methylquinolin-3-yl)-phenoxy]-piperidine-1-carboxylic acid hydroxyamide]
Second: CONC(=O)N1CCC(Oc2ccc(-c3cnc4ccccc4c3C)cc2)CC1 [Example 82, 4-[4-(4-Methylquinolin-3-yl)-phenoxy]-piperidine-1-carboxylic acid methoxyamide]
The IC50 of the first is higher: 1000 to 10000 nM for the first, 1 to 99 nM for the second. The second is the more potent here.

First: O=C(C1CC1)N1CCC(Oc2ccc(-c3cc(F)cc(OCc4ccccc4)c3)cc2)CC1 [Example 507, [4-(5′-Benzyloxy-3′-fluorobiphenyl-4-yloxy)-piperidin-1-yl]-cyclopropyl-methanone]
Second: O=C(C1CCC1)N1CCC(Oc2ccc(-c3cnc4cccc(F)c4c3)cc2)CC1 [Example 31, Cyclobutyl-{4-[4-(5-fluoroquinolin-3-yl)-phenoxy]-piperidin-1-yl}-methanone]
The IC50 of the first is higher: 1000 to 10000 nM for the first, 1 to 99 nM for the second.

`COc1cc(-c2ccc(OC3CCN(C(=O)C4CC4)CC3)cc2)cnc1OC` [Example 499, Cyclopropyl-{4-[4-(5,6-dimethoxypyridin-3-yl)-phenoxy]-piperidin-1-yl}-methanone] and `Cc1nc2ccc(-c3ccc(OC4CCN(C(=O)C5CC5)CC4)cc3)cn2c1C` [Example 291, Cyclopropyl-{4-[4-(2,3-dimethylimidazo[1,2-a]pyridin-6-yl)-phenoxy]-piperidin-1-yl}-methanone] fall in the same range of IC50: 1000 to 10000 nM for the first, 1000 to 10000 nM for the second.

`Cn1ncc2ccc(-c3ccc(OC4CCN(C(=O)C5CCC5)CC4)cc3)cc21` [Example 271, Cyclobutyl-{4-[4-(1-methyl-1H-indazol-6-yl)-phenoxy]-piperidin-1-yl}-methanone, TFA salt] and `O=C(C1CCC1)N1CCC(Oc2ccc(-c3ccc4c(Cl)nccc4c3)cc2)CC1` [Example 428, {4-[4-(1-Chloroisoquinolin-6-yl)-phenoxy]-piperidin-1-yl}-cyclobutyl-methanone] fall in the same range of IC50: 100 to 999 nM for the first, 100 to 999 nM for the second.

`O=C([C@H]1CCCO1)N1CCC(Oc2ccc(-c3ccc4cnc(C5CC5)cc4c3)cc2)CC1` [Example 480, {4-[4-(3-Cyclopropylisoquinolin-6-yl)-phenoxy]-piperidin-1-yl}-(R)-tetra-hy drofuran-2-yl-methanone] and `COc1cc2cc(-c3ccc(OC4CCN(C(=O)[C@H]5CCCO5)CC4)cc3)ccc2cn1` [Example 418, {4-[4-(3-Methoxy-isoquinolin-6-yl)-phenoxy]-piperidin-1-yl}-(R)-tetrahydrofuran-2-yl-methanone] fall in the same range of IC50: 1 to 99 nM for the first, 1 to 99 nM for the second.

`Cc1c(-c2ccc(OC3CCN(C(=O)[C@H]4CCCO4)CC3)c(F)c2)cnc2ccccc12` [Example 230, {4-[2-Fluoro-4-(4-methylquinolin-3-yl)-phenoxy]-piperidin-1-yl}-(R)-tetrahydrofuran-2-yl-methanone] and `Cc1c(-c2ccc(OC3CCN(C(=O)C4CC4)CC3)c(F)c2)ccc2cccnc12` [Example 227, Cyclopropyl-{4-[2-fluoro-4-(8-methylquinolin-7-yl)-phenoxy]-piperidin-1-yl}-methanone] fall in the same range of IC50: 1 to 99 nM for the first, 1 to 99 nM for the second.

`CC(C)C(=O)N1CCC(S(=O)(=O)c2ccc(-c3ccc4cnccc4c3)cc2)CC1` [Example 514, 1-[4-(4-Isoquinolin-6-yl-benzenesulfonyl)-piperidin-1-yl]-2-methyl-propan-1-one] and `CCC(=O)N1CCC(N(C)C(=O)c2ccc(-c3ccc4cnccc4c3)cc2F)CC1` [Example 158, 2-Fluoro-4-isoquinolin-6-yl-N-methyl-N-(1-propionyl-piperidin-4-yl)-benzamide] fall in the same range of IC50: 1000 to 10000 nM for the first, 1000 to 10000 nM for the second.

`CC(C)C(=O)N1CCC(Oc2ccc(-c3ccc4cccnc4c3)nc2)CC1` [Example 145, 2-Methyl-1-[4-(6-quinolin-7-yl-pyridin-3-yloxy)-piperidin-1-yl]-propan-1-one, 2HCl] and `CCC(=O)N1CCC(Oc2ccc(-c3ccc4cccnc4c3)nc2)CC1` [Example 144, 1-[4-(6-Quinolin-7-yl-pyridin-3-yloxy)-piperidin-1-yl]-propan-1-one, 2HCl] fall in the same range of IC50: 1000 to 10000 nM for the first, 1000 to 10000 nM for the second.

`O=C(N1CCC(Oc2ccc(-c3cnc4ccccc4c3Cl)cc2)CC1)N1CCCO1` [Example 76, {4-[4-(4-Chloroquinolin-3-yl)-phenoxy]-piperidin-1-yl}-isoxazolidin-2-yl-methanone] and `CCC(=O)N1CCC(Oc2ccc(-c3cnc4ccccc4c3Cl)cc2)CC1` [Example 47, 1-{4-[4-(4-Chloroquinolin-3-yl)-phenoxy]-piperidin-1-yl}-propan-1-one] fall in the same range of IC50: 1 to 99 nM for the first, 1 to 99 nM for the second.

First: CCC(=O)N1CCC(Sc2ccc(-c3ccc4cccnc4c3)cc2)CC1 [Example 516, 1-(4-((4-(quinolin-7-yl)phenyl)thio)piperidin-1-yl)propan-1-one, HCl]
Second: CC(C)C(=O)N1CCC(Oc2ccc(-c3ccc4cccnc4c3)cc2Cl)CC1 [Example 195, 1-[4-(2-Chloro-4-quinolin-7-yl-phenoxy)-piperidin-1-yl]-2-methyl-propan-1-one]
The IC50 of the first is lower: 1 to 99 nM for the first, 1000 to 10000 nM for the second. The first is the more potent here.

Compared with `Cc1c(-c2ccc(OC3CCN(C(=O)C4(O)CC4)CC3)cc2)ccc2ncnn12` [Example 312, (1-Hydroxycyclopropyl)-{4-[4-(5-methyl-[1,2,4]triazolo[1,5-a]pyridin-6-yl)-phenoxy]-piperidin-1-yl}-methanone], `Cc1c(-c2ccc(OC3CCN(C(=O)C4(CO)CC4)CC3)cc2)ccc2nccn12` [Example 304, (1-Hydroxymethylcyclopropyl)-{4-[4-(5-methyl-imidazo[1,2-a]pyridin-6-yl)-phenoxy]-piperidin-1-yl}-methanone] is higher in IC50: 100 to 999 nM for the first, 1000 to 10000 nM for the second. The first is the more potent here.

First: CCNC(=O)N1CCC(Oc2ccc(-c3cnc4ccccc4c3C)cc2)CC1 [Example 84, 4-[4-(4-Methylquinolin-3-yl)-phenoxy]-piperidine-1-carboxylic acid ethylamide]
Second: CCC(=O)N1CCC(Oc2ccc(-c3ccc4c(C)ncc(C)c4c3)cc2)CC1 [Example 469, 1-[4-[4-(1,4-Dimethyl-6-isoquinolyl)phenoxy]-1-piperidyl]propan-1-one, HCl]
The IC50 of the first is lower: 1 to 99 nM for the first, 100 to 999 nM for the second. The first is the more potent here.

`O=C(C1CC1)N1CCC(Oc2ccc(-c3ccc4c(Cl)ccnc4c3)cc2)CC1` [Example 258, {4-[4-(4-Chloroquinolin-7-yl)-phenoxy]-piperidin-1-yl}-cyclopropyl-methanone, TFA salt] and `N#Cc1ccc(-c2ccc(OC3CCN(C(=O)C4CC4)CC3)cc2)cc1` [Example 495, 4′-(1-Cyclopropanecarbonyl-piperidin-4-yloxy)-biphenyl-4-carbonitrile] fall in the same range of IC50: 100 to 999 nM for the first, 100 to 999 nM for the second.

`O=C(C1CC1)N1CCC(Oc2ccc(-c3ccc4cccnc4c3OCCN3CCOCC3)cc2)CC1` [Example 172, Cyclopropyl-(4-{4-[8-(2-morpholin-4-yl-ethoxy)-quinolin-7-yl]-phenoxyl}-piperidin-1-yl)-methanone, 2HCl] showed an IC50 of 1000 to 10000 nM.
